From publication PMC7143421 (Marine Drugs, 2020)
Square brackets hold non-standard residues; d marks the D form. Peptide text beside a SMILES is read from it. Hyp = O=C(O)[C@@H]1C[C@@H](O)CN1

Columns and labels:
[1] = biological target: NR2A (Homo sapiens, UniProt Q12879); format: cell-based
[2] = biological target: T1, human NR2B (Homo sapiens, UniProt Q13224)
[3] = biological target: T1, human NR2B; assay: cell-based

T1 sequence (Q13224 whole entry, looked up): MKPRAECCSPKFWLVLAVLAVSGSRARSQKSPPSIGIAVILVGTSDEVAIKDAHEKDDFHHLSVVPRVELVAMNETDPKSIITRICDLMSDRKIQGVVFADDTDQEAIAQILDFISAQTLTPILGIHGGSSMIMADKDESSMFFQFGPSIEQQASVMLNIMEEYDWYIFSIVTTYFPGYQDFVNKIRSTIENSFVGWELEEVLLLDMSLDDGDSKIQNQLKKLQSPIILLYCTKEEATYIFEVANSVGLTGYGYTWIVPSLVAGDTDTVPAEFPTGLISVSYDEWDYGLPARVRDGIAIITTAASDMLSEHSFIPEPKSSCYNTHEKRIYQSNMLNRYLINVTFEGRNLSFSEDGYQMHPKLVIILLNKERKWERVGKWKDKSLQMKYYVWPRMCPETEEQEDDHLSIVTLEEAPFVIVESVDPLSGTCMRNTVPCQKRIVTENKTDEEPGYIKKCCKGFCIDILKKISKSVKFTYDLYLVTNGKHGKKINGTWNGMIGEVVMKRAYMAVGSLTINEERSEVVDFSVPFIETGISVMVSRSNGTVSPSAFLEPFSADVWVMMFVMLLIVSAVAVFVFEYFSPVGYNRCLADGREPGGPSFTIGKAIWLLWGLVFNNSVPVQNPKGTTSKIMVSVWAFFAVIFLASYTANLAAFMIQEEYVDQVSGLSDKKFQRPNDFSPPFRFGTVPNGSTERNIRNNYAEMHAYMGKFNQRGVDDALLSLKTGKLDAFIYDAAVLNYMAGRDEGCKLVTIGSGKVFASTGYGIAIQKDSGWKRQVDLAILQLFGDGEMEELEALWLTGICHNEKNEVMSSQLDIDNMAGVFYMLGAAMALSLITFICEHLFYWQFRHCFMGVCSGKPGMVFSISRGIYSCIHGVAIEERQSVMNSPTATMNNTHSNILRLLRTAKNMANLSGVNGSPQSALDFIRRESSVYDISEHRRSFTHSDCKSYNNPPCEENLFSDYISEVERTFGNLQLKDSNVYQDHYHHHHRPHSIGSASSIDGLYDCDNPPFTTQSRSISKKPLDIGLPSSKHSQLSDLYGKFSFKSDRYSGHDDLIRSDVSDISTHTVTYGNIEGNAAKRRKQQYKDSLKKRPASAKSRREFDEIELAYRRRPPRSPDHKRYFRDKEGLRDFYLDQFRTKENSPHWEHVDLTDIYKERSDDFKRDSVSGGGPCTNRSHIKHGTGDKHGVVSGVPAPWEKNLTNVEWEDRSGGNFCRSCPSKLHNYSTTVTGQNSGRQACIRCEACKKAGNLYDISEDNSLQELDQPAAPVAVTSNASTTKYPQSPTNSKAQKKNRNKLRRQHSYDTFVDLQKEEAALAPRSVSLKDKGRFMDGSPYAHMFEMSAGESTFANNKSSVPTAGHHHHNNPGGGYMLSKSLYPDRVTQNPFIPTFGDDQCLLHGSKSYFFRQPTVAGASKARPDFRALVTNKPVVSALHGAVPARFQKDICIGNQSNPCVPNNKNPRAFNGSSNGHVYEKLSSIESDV
NR2A, sequence (Q12879 whole entry, looked up): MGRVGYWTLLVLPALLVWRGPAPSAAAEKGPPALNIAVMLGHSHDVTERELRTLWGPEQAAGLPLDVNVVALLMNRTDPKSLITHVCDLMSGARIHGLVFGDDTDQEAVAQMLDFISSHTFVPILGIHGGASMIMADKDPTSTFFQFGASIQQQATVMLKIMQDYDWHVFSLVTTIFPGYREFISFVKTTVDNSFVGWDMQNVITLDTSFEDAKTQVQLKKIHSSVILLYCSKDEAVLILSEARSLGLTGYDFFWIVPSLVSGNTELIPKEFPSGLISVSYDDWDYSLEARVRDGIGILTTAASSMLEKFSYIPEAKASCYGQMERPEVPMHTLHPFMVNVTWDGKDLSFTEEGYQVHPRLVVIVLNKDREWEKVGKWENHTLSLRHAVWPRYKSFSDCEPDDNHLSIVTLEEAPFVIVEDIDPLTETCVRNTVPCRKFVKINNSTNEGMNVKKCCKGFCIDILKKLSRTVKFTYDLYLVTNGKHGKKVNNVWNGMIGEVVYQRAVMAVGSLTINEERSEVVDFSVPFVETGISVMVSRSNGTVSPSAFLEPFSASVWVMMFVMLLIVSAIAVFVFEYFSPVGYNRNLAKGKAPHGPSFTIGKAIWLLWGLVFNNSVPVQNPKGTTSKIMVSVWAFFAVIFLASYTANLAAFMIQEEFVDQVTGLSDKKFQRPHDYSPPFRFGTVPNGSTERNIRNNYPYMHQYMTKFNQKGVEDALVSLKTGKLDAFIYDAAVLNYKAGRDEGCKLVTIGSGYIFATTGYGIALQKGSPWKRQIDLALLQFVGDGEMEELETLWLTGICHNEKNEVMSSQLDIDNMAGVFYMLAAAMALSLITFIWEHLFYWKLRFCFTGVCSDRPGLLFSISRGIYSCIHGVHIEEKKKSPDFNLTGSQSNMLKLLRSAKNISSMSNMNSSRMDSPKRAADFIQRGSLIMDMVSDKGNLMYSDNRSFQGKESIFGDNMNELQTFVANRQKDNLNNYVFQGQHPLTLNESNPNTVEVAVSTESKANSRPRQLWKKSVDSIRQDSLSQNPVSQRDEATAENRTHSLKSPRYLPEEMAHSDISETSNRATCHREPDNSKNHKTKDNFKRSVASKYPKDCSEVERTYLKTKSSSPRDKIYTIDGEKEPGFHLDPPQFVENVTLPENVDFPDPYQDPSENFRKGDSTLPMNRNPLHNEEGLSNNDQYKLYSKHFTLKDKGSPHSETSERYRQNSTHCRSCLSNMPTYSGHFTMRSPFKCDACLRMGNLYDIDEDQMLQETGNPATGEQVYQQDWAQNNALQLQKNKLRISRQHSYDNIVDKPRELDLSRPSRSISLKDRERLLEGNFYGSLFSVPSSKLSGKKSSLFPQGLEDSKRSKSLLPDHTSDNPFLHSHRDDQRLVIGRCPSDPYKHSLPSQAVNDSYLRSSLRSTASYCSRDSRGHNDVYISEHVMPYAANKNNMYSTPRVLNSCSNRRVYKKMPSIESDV

CC(C)C[C@H](NC(=O)[C@H](Cc1ccc(O)cc1)NC(=O)[C@H](Cc1ccc(O)cc1)NC(=O)[C@@H](N)CC(N)=O)C(=O)N[C@@H](Cc1ccc(O)cc1)C(=O)N1C[C@H](O)C[C@H]1C(=O)N[C@@H](C)C(=O)N[C@@H](CCCNC(=N)N)C(=O)N1C[C@H](O)C[C@H]1C(=O)N[C@@H](CCC(=O)O)C(=O)N[C@@H](CC(N)=O)C(=O)N[C@@H](CO)C(=O)N[C@H](Cc1c[nH]c2ccccc12)C(=O)N[C@@H](Cc1c[nH]c2ccccc12)C(=O)N[C@H](C(=O)O)[C@@H](C)O [conotoxin-Ac1] (H-NYYLY[Hyp]AR[Hyp]ENS[dW]WT-OH)
The Inhibition of Currents (%) NR2A [1]: 7.22% | The Inhibition of Currents (%) NR2B [2]: 51.69% | IC50 [3]: 8.22 ± 0.022 µM
